These results are taken from patent US8329693B2, “Method for the prevention of thromboembolic disorders” (Orion Corporation, priority 2004, dated 2012).

The assay relates to salt sensitive rat model. The assay is described as follows: Stroke in salt sensitive rat model (summary statements). The class given is in vivo. To be noted: preventative treatment.

Take `CC(=O)Nc1ccc(C2=NNC(=O)C[C@H]2C)cc1` [metabolite (II), (R)—N-[4-(1,4,5,6-tetrahydro-4-methyl-6-oxo-3-pyridazinyl)phenyl]acetamide]: the “incidence and volume of brain lesions, behavioural disorders and mortality associated with stroke” value is “markedly reduce”.
